Test results taken from patent publication US8778982B2, “Synergistic microbicidal compositions” (Rohm and Haas Company, priority 2007, dated 2014).
Where two headings read alike, the source gives them in different places.

Tests used:
Format in all cases: cell-based
[1] = test system: Aspergillus niger (A. niger—ATCC 16404); experiment: Synergy test, microtiter plate high resolution MIC assay, PDB medium, mold; conditions: for SI / Qb: A. niger 16404 - PDB (10 days), A = MIT; for Qb: B alone where Qa = 0; for MIC: Aspergillus niger, ATCC16404, 72 h
Text: (§1) One measure of synergism is the industrially accepted method described by Kull, F. C.; Eisman, P. C.; Sylwestrowicz, H. D. and Mayer, R. L., in Applied Microbiology 9:538-541 (1961), using the ratio determined by the formula: Qa/QA+Qb/QB=Synergy Index(“SI”) wherein: • QA=concentration of compound A (first component) in ppm, acting alone, which produced an end point (MIC of Compound A). • Qa=concentration of compound A in ppm, in the mixture, which produced an end point. • QB=concentration of compound B (second component) in ppm, acting alone, which produced an end point (MIC of Compound B). • Qb=concentration of compound B in ppm, in the mixture, which produced an end point.
(§2) When the sum of Qa/QA and Qb/QB is greater than one, antagonism is indicated. […] The lower the SI, the greater is the synergy shown by that particular mixture. The minimum inhibitory concentration (MIC) of a microbicide is the lowest concentration tested under a specific set of conditions that prevents the growth of the tested microorganisms.
(§3) Synergy tests were conducted using standard microtiter plate assays with media designed for optimal growth of the test microorganism. Minimal salt medium supplemented with 0.2% glucose and 0.1% yeast extract (M9GY medium) was used for testing bacteria; Potato Dextrose Broth (PDB medium) was used for testing yeast and mold. In this method, a wide range of combinations of microbicides and other personal care raw materials was tested by conducting high resolution MIC assays in the presence of various concentrations of CMIT/MIT, MIT, or BIT. High resolution MICs were determined by adding varying amounts of microbicide to one column of a microtitre plate and doing subsequent […] dilutions using an automated liquid handling system to obtain a series of endpoints ranging from 2 ppm to 10,000 ppm active ingredient.
(§4) The synergy of the combinations of the present invention was determined against a bacterium, Escherichia coli (E. coli—ATCC #8739), a yeast, Candida albicans (C. albicans—ATCC 10231), and a mold, Aspergillus niger (A. niger—ATCC 16404). The bacteria were used at a concentration of about 5×10^6 bacteria per mL and the yeast and mold at 5×10^5 fungi per mL. These microorganisms are representative of natural contaminants in many consumer and industrial applications. […] (yeast and mold) or 30° C. (bacteria).

[2] = test system: Escherichia coli (E. coli—ATCC #8739); experiment: Synergy test, microtiter plate high resolution MIC assay, M9GY medium, bacterium; conditions: for SI / Qb: E. coli 8739 - M9GY (1 day), A = MIT; for Qb: B alone where Qa = 0; for MIC: Escherichia coli, ATCC8739, 24 h
Text: as §1, §2, §3, §4

[3] = test system: Candida albicans (C. albicans—ATCC 10231); experiment: Synergy test, microtiter plate high resolution MIC assay, PDB medium, yeast; conditions: for SI / Qb: C. albicans 10231 - PDB (6 days), A = MIT; for Qb: B alone where Qa = 0; for MIC: Candida albicans
Text: as §1, §2, §3, §4

CCCCCCCCCC(=O)OCC(O)CO (stereo not drawn) [Glyceryl caprate]
SI (synergy index) ([1]; A. niger 16404, PDB, 3 days): 1.00
Synergy Index (SI) = Qa/QA+Qb/QB ([1]; A. niger 16404, PDB, 3 days): 1.00
SI ([1]; B = Glyceryl caprate): 1.00
Qb ([1]; B = Glyceryl caprate): 2000 ppm
MIC ([1]; A. niger 16404, PDB, 3 days, 25° C., read-out: MIC of the component acting alone (QA or QB)): 2000 µg/mL
MIC ([1]; A. niger 16404, PDB, 3 days, read-out: MIC of the component acting alone (Qa or Qb with the other component at 0)): 2000 µg/mL
SI (synergy index) ([2]; E. coli 8739, M9GY, 1 day): 1.00
Synergy Index (SI) = Qa/QA+Qb/QB ([2]; E. coli 8739, M9GY, 1 day): 1.00
SI ([2]; B = Glyceryl caprate): 1.00
Qb ([2]; B = Glyceryl caprate): 20000 ppm
MIC ([2]; E. coli 8739, M9GY, 1 day, 30° C., read-out: MIC of the component acting alone (QA or QB)): 20000 µg/mL
MIC ([2]; E. coli 8739, M9GY, 1 day, read-out: MIC of the component acting alone (Qa or Qb with the other component at 0)): 20000 µg/mL
Synergy Index (SI) = Qa/QA+Qb/QB ([3]; C. albicans 10231, PDB, 1 day): 1.00
SI (synergy index) ([3]; C. albicans 10231, PDB, 6 days): 1.00
SI ([3]; B = Glyceryl caprate): 1.00
Qb ([3]; B = Glyceryl caprate): 2000 ppm
MIC ([3]; ATCC10231, 24 h, C. albicans 10231, PDB, 1 day, 25° C., read-out: MIC of the component acting alone (QA or QB)): 2000 µg/mL
MIC ([3]; ATCC10231, 144 h, C. albicans 10231, PDB, 6 days, read-out: MIC of the component acting alone (Qa or Qb with the other component at 0)): 2000 µg/mL

CCCCCCCCCCCC(=O)N[C@@H](CCCNC(=N)N)C(=O)OCC.Cl [Lauric arginate, N-α-lauoryl-L-arginine ethyl ester monohydrochloride]
MIC of the component acting alone (Qa or Qb with the other component at 0) ([1]; A. niger 16404, PDB, 3 days): 2000 ppm
SI (synergy index) ([1]; A. niger 16404, PDB, 3 days): 1.00
Synergy Index (SI) = Qa/QA+Qb/QB ([1]; A. niger 16404, PDB, 4 days): 1.00
MIC of the component acting alone (QA or QB) ([1]; A. niger 16404, PDB, 4 days, 25° C.): 2000 ppm
SI ([1]; B = Lauric arginate): 1.00
Qb ([1]; B = Lauric arginate): 2000 ppm
MIC of the component acting alone (Qa or Qb with the other component at 0) ([2]; E. coli 8739, M9GY, 1 day): 300 ppm
SI (synergy index) ([2]; E. coli 8739, M9GY, 1 day): 1.00
Synergy Index (SI) = Qa/QA+Qb/QB ([2]; E. coli 8739, M9GY, 1 day): 1.00
MIC of the component acting alone (QA or QB) ([2]; E. coli 8739, M9GY, 1 day, 30° C.): 200 ppm
SI ([2]; B = Lauric arginate): 1.00
Qb ([2]; B = Lauric arginate): 300 ppm
Synergy Index (SI) = Qa/QA+Qb/QB ([3]; C. albicans 10231, PDB, 1 day): 1.00
MIC of the component acting alone (QA or QB) ([3]; C. albicans 10231, PDB, 1 day, 25° C.): 800 ppm
MIC of the component acting alone (Qa or Qb with the other component at 0) ([3]; C. albicans 10231, PDB, 6 days): 200 ppm
SI (synergy index) ([3]; C. albicans 10231, PDB, 6 days): 1.00
SI ([3]; B = Lauric arginate): 1.00
Qb ([3]; B = Lauric arginate): 800 ppm
